Measurements published in ChEMBL document CHEMBL5214927, “Recent advance on carbamate-based cholinesterase inhibitors as potential multifunctional agents against Alzheimer's disease” (Eur J Med Chem, 2022).

Tests used:
Acetylcholinesterase [1] = molecular target: T1, Acetylcholinesterase (Homo sapiens, UniProt P22303); assay: Inhibition of human AChE
Acetylcholinesterase [2] = molecular target: T2, Acetylcholinesterase (Rattus norvegicus, UniProt P37136); assay: Inhibition of rat AChE
T2 sequence (P37136 whole entry): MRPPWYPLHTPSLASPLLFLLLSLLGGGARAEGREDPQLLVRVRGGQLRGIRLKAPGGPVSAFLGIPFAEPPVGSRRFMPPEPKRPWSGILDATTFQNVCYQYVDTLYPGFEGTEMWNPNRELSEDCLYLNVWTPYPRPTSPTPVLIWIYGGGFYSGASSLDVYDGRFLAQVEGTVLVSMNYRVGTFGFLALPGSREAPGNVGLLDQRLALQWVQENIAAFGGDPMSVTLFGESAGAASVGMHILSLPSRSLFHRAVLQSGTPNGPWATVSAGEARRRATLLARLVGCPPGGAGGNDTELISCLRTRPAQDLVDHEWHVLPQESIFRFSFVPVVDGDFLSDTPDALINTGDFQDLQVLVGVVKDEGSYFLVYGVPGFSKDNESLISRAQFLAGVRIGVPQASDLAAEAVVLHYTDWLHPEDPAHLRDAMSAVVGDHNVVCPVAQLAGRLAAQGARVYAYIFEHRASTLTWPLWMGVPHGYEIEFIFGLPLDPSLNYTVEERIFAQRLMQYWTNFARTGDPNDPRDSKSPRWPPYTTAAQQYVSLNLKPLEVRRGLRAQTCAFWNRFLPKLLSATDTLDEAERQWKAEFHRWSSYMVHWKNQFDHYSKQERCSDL

[3] = molecular target: T3, Cholinesterases; ACHE & BCHE (Homo sapiens) (UniProt P06276+P22303); assay: Selectivity index, ratio of IC50 for recombinant human serum BChE to IC50 for recombinant human serum AChE; type: protein assay
T3 sequence (P06276 whole entry, looked up): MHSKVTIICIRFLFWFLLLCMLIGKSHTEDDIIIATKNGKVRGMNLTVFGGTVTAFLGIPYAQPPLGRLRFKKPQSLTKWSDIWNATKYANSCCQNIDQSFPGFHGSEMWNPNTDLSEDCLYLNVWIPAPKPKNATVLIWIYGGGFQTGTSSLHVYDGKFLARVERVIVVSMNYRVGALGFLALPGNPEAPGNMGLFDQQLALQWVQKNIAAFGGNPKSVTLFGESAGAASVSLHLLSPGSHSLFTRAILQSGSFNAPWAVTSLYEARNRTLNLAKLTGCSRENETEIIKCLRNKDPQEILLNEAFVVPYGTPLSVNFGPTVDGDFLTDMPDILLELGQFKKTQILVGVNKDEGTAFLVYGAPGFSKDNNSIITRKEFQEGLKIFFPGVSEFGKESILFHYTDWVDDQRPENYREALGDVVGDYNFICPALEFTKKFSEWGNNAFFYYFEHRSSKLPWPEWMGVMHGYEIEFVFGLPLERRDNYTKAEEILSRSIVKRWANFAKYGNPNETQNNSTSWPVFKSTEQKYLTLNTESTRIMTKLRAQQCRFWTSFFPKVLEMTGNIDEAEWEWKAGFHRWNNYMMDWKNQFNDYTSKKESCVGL
T3 sequence (P22303 whole entry, looked up): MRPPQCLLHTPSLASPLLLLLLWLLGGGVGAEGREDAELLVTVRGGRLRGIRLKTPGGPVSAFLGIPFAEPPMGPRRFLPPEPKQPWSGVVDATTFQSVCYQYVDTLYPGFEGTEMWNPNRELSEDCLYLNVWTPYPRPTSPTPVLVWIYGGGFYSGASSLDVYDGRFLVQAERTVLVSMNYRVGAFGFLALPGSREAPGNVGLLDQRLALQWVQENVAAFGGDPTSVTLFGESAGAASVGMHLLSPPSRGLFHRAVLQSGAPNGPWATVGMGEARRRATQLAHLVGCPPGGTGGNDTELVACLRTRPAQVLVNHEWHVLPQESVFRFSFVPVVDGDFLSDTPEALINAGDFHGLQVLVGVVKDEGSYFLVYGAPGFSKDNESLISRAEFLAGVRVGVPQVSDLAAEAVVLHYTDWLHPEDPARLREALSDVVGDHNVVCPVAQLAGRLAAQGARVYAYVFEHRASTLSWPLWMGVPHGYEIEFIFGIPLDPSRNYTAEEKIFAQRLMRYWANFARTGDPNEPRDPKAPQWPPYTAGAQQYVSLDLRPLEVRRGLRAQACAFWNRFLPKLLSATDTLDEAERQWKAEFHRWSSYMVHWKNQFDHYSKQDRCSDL

[4] = Selectivity index, ratio of IC50 for electric eel AChE to IC50 for equine BChE
Cholinesterase [5] = molecular target: T4, Cholinesterase (Equus caballus, UniProt P81908); assay: Inhibition of equine BChE
T4 sequence (P81908 whole entry): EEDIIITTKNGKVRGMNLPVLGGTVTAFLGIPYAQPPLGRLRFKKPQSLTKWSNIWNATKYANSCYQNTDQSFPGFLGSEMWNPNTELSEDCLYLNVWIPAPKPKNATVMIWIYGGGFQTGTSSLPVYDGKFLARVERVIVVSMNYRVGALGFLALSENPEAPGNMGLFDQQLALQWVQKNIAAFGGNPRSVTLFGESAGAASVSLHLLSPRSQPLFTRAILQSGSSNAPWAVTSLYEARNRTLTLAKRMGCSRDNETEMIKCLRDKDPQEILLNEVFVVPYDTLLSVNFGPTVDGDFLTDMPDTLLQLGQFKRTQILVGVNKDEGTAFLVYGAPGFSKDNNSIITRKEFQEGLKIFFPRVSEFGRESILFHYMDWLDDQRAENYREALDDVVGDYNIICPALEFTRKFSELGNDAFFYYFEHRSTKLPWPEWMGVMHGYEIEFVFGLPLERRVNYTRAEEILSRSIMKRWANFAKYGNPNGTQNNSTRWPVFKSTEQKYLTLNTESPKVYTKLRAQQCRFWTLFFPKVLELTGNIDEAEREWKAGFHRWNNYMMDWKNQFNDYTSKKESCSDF

Acetylcholinesterase [6] = molecular target: T5, Acetylcholinesterase (Electrophorus electricus, UniProt O42275); assay: Inhibition of electric eel AChE
T5 sequence (O42275 whole entry): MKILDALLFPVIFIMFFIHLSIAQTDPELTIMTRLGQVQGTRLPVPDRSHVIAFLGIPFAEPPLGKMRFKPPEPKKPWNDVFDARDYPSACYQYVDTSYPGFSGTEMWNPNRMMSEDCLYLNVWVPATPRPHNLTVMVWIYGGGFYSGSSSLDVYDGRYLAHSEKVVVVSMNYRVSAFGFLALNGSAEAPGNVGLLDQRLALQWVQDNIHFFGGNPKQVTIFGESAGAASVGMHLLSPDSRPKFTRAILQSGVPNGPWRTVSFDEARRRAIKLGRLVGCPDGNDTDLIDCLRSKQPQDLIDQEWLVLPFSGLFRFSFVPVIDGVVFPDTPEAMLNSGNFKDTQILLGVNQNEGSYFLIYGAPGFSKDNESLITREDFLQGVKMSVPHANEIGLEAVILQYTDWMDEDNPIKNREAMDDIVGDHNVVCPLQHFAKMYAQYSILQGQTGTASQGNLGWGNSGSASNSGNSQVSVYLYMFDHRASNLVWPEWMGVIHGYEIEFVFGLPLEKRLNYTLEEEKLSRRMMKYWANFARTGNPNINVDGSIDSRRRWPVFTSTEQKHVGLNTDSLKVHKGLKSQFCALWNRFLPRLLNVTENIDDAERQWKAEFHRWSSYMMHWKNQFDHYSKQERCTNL

Cholinesterase [7] = molecular target: T6, Cholinesterase (Homo sapiens, UniProt P06276); assay: Inhibition of human BChE
T6 sequence (P06276 whole entry): as the sequence (P06276 whole entry, looked up) above

Acetylcholinesterase [8] = molecular target: T1, Acetylcholinesterase
Description: Inhibition of human erythrocyte AChE using acetylthiocholine iodide as substrate preincubated for 30 mins followed by substrate addition measured after 5 mins by Ellman's method

Cholinesterase [9] = molecular target: T6, Cholinesterase; assay: Inhibition of human serum BChE using butyrylthiocholine as substrate by Ellman's method
Acetylcholinesterase [10] = molecular target: T5, Acetylcholinesterase; assay: Binding affinity to electric eel AChE assessed as inhibition constant using acetylthiocholine iodide as substrate incubated for 30 mins by Ellman's method
Acetylcholinesterase [11] = molecular target: T5, Acetylcholinesterase; assay: Inhibition of electric eel AChE using acetylthiocholine iodide as substrate incubated for 30 mins by Ellman's method
[12] = molecular target: T3, Cholinesterases; ACHE & BCHE (Homo sapiens); assay: Selectivity index, ratio of IC50 for AChE (unknown origin) to BChE (unknown origin); type: protein assay
Cholinesterase [13] = molecular target: T6, Cholinesterase; assay: Inhibition of BChE (unknown origin)
Acetylcholinesterase [14] = molecular target: T1, Acetylcholinesterase; assay: Inhibition of AChE (unknown origin)
[15] = molecular target: T7, Amine oxidase [flavin-containing] B (Homo sapiens, UniProt P27338); assay: Inhibition of MAO-B (unknown origin)
T7 sequence (P27338 whole entry): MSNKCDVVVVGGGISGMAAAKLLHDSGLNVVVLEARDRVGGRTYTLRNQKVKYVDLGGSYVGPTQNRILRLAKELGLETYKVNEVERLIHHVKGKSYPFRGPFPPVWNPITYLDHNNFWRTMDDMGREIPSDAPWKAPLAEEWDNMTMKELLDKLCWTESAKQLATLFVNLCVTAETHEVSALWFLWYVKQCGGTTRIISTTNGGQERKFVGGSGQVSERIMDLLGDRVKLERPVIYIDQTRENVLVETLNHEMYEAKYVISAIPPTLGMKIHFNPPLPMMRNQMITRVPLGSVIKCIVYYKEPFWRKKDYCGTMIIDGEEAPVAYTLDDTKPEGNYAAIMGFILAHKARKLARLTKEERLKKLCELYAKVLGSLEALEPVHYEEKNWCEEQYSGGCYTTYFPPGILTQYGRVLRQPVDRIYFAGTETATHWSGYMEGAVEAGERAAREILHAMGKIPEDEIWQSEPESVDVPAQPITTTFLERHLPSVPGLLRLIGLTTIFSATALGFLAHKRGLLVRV

[16] = molecular target: T8, Amine oxidase [flavin-containing] A (Homo sapiens, UniProt P21397); assay: Inhibition of MAO-A (unknown origin)
T8 sequence (P21397 whole entry): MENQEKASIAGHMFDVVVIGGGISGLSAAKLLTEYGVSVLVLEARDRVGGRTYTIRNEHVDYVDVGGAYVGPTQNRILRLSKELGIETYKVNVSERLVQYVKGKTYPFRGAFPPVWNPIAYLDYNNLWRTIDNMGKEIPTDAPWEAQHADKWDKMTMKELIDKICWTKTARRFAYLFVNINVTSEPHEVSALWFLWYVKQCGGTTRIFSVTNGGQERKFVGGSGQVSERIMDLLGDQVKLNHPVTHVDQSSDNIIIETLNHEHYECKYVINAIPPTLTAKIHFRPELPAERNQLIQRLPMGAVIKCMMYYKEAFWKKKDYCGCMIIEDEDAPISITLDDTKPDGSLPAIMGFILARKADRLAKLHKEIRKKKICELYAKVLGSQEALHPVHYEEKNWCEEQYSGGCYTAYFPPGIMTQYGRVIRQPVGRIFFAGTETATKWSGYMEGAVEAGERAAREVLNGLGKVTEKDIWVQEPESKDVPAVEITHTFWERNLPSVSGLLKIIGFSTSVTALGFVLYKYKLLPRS

Acetylcholinesterase [17] = molecular target: T1, Acetylcholinesterase; assay: Inhibition of recombinant human AChE
Cholinesterase [18] = molecular target: T4, Cholinesterase; assay: Inhibition of equine BChE using acetylthiocholine iodide as substrate preincubated for 10 mins followed by substrate addition by Ellman's method
Acetylcholinesterase [19] = molecular target: T2, Acetylcholinesterase; assay: Inhibition of Sprague-Dawley rat cortex AChE using acetylthiocholine iodide as substrate incubated for 15 mins in presence of iso-OMPA inhibitor by Ellman's method
Acetylcholinesterase [20] = molecular target: T1, Acetylcholinesterase; assay: Inhibition of recombinant human serum AChE using acetylthiocholine iodide as substrate preincubated for 20 mins followed by substrate addition measured after 5 mins by Ellman's method
Cholinesterase [21] = molecular target: T6, Cholinesterase; assay: Inhibition of recombinant human serum BChE using butyrylthiocholine iodide as substrate preincubated for 20 mins followed by substrate addition measured after 5 mins by Ellman's method
[22] = molecular target: T3, Cholinesterases; ACHE & BCHE (Homo sapiens); assay: Selectivity index, ratio of IC50 for human AChE to IC50 for human BChE; type: protein assay

T1 sequence (P22303 whole entry): as the sequence (P22303 whole entry, looked up) above

COC(=O)C1=CN([11CH3])c2cccc(OC(=O)N(C)C)c2C1
IC50 (Acetylcholinesterase [1]): > 1000 µM

CN[C@@H](CCOc1ccc([N+](=O)[O-])cc1)c1ccc(OC(=O)N(C)C)cc1
IC50 (Acetylcholinesterase [2]): 0.101 µM

CNC(=O)Oc1cccc(CN(C)CCCCCCCOc2cccc(-c3cc(=O)c4ccccc4o3)c2)c1
Ratio IC50 [3]: 122

CCCCCCCNC(=O)Oc1ccc(F)c(-c2coc3c4c(ccc3c2=O)OC(C)(C)C=C4)c1
Ratio IC50 [4]: 836
IC50 (Cholinesterase [5]): 0.093 µM
IC50 (Acetylcholinesterase [6]): 77.8 µM

CCCCCCCCNC(=O)Oc1cc(OC(=O)NCCCCCCCC)cc(OC(=O)NCCCCCCCC)c1
IC50 (Acetylcholinesterase [6]): 0.015 µM

CCN1/C(=C/C(C)=O)Sc2ccc(OC(=O)OCCOCCNC(=O)c3cc4c(OC(=O)N(C)C)cccc4[n+](C)c3)cc21
IC50 (Acetylcholinesterase [1]): 0.0814 µM
IC50 (Cholinesterase [7]): 0.482 µM

CN(C)C(=O)Oc1cccc(-c2coc3c4c(ccc3c2=O)OC(C)(C)C=C4)c1
Ratio IC50 [4]: 49.3
IC50 (Cholinesterase [5]): 0.68 µM
IC50 (Acetylcholinesterase [6]): 33.6 µM

CNC(=O)Oc1cccc(CN(C)CCCCCCCOc2ccc3c(=O)c4ccccc4oc3c2)c1
IC50 (Acetylcholinesterase [8]): 0.0516 µM
IC50 (Cholinesterase [9]): 0.00032 µM

COC(=O)CCC/C=C\C/C=C\C/C=C\CCOC(=O)Nc1ccc(OC)cc1
Ki (Acetylcholinesterase [10]): 3.48 µM
IC50 (Acetylcholinesterase [11]): 24.8 µM

CCNC(=O)Oc1ccc2c(c1)[C@]1(C)CCO[C@@H]1O2
Ratio IC50 [12]: 60
IC50 (Cholinesterase [13]): 0.006 µM
IC50 (Acetylcholinesterase [14]): 0.036 µM

CCCCCCCNC(=O)Oc1ccc2c(c1)CN1CCc3ccc(/N=N\c4ccccc4)cc3C1N2C (configuration not stated)
IC50 (Cholinesterase [13]): 0.0445 µM

CCC(C)(C)NCC(O)c1cc(OC(=O)N(C)C)cc(OC(=O)N(C)C)c1 (configuration not stated)
Ratio IC50 [4]: > 796

C#CCN[C@@H]1CCc2ccc(OC(=O)N(C)CC)cc21
IC50 [15]: 2 µM
IC50 [16]: 0.77 µM
IC50 (Acetylcholinesterase [17]): 1000 µM
IC50 (Cholinesterase [7]): 4.1 µM

C#CCNC1CCc2c(OC(=O)N(C)CC)cccc21 (configuration not stated)
IC50 [15]: 0.83 µM
IC50 [16]: 0.019 µM
IC50 (Acetylcholinesterase [17]): 150 µM
IC50 (Cholinesterase [7]): 2.15 µM

COC(=O)CCC/C=C\C/C=C\C/C=C\CCOC(=O)Nc1cccc(Cl)c1
Ki (Acetylcholinesterase [10]): 0.93 µM
IC50 (Acetylcholinesterase [11]): 16.8 µM

COc1ccccc1-c1ccc(=O)n(COC(=O)Nc2ccc(C)cc2)n1
IC50 (Cholinesterase [18]): 34.5 µM

COc1ccc2[nH]cc(CCC(=O)CCCCCCNC(=O)Oc3ccc4c(c3)CN3CCc5ccccc5C3N4C)c2c1 (configuration not stated)
IC50 (Cholinesterase [13]): 0.102 µM

CC(C)c1ccc(NC(=O)Oc2ccc3c(c2)C2(C)COC(C2)O3)cc1 (configuration not stated)
Ratio IC50 [12]: 195

CN1CCN(C(=O)Oc2ccc(-c3coc4cc(OC(=O)N5CCN(C)CC5)ccc4c3=O)cc2)CC1
IC50 (Acetylcholinesterase [2]): 1.2 µM

COc1cc(/C=C/c2ccc(OC(=O)N3CCN(C)CC3)cc2)cc(OC)c1
IC50 (Acetylcholinesterase [19]): 8.58 µM

O=C(Nc1cccc([N+](=O)[O-])c1)OCCNc1c2ccccc2nc2ccccc12
IC50 (Cholinesterase [5]): 0.017 µM
IC50 (Acetylcholinesterase [6]): 0.0221 µM

CNC(=O)Oc1cccc(CN(C)CCCCCCOc2ccc3c(c2)O/C(=C\c2cc(OC)c(OC)c(OC)c2)C3=O)c1
IC50 (Acetylcholinesterase [20]): 0.00052 µM
Ratio IC50 [3]: 261
IC50 (Cholinesterase [21]): 0.136 µM

CCC(C)(C)NCC(O)c1cc(O)cc(OC(=O)N(C)C)c1 (configuration not stated)
Ratio IC50 [22]: 400
IC50 (Acetylcholinesterase [1]): 20 µM
IC50 (Cholinesterase [7]): 0.05 µM

COC(=O)CCC/C=C\C/C=C\C/C=C\CCOC(=O)Nc1ccc(Br)cc1
Ki (Acetylcholinesterase [10]): 1.1 µM
IC50 (Acetylcholinesterase [11]): 19.2 µM

CCCCCCCNC(=O)OCn1nc(-c2ccccc2OC)ccc1=O
IC50 (Cholinesterase [18]): 12.8 µM
